“Also recorded” adds a separate entry of the source. Where two headings read alike, the source gives them in different places.
Columns and labels:
[1] = system: patients with septic shock; details: cited from earlier work; for absolute mortality reduction at 28 days compared to saline placebo: 18 g dose, non-significant
[2] = system: patients with septic shock; assay: Pharmacometabolomic analysis of the RACE trial: mortality after L-carnitine stratified by pre-treatment serum acetylcarnitine; format: in vivo, human; details: for 90-day mortality: high (≥36 μM) pretreatment acetylcarnitine, placebo 100%; for hazard ratio (Mantel-Haenszel) / Kaplan-Meier curve, mortality benefit: 18 g vs placebo
Source text: Patient selection: Detailed inclusion and exclusion criteria have been previously reported (see, e.g., Jones (2018) “Effect of Levocarnitine vs Placebo as an Adjunctive Treatment for Septic Shock: The Rapid Administration of Carnitine in Sepsis (RACE) Randomized Clinical Trial” JAMA Netw Open 1: e186076, incorporated herein by reference). Briefly, patients presenting with suspected or confirmed infection and meeting consensus criteria for septic shock including administration of continuous vasopressors despite adequate fluid resuscitation, an elevated lactate>2 mmol/L, and a SOFA score of at least 5 were eligible for inclusion. All patients enrolled in the clinical trial were included in the present analysis with the exception of two patients who withdrew consent following randomization and 12 that lacked a T0 sample (FIG. 6).
Blood sampling. Following consent but prior to initiation of therapy, whole blood was drawn into serum separator tubes (SST; Vacutainer, Becton Dickinson, Franklin Lakes, NJ) and was allowed to clot for at least 30 minutes at room temperature. A portion of whole blood was aliquoted, while the remainder was centrifuged to yield serum. All samples were then frozen at −80° C. within 60 minutes of the initial sample acquisition. This approach has been previously utilized to yield samples appropriate for metabolomics analyses (see, e.g., Puskarich (2015) “Pharmacometabolomics of L-carnitine treatment response phenotypes in patients with septic shock” Ann Am Thorac Soc 12: 46-56, incorporated herein by reference). At the completion of the clinical trial, serum samples were shipped on dry ice to the University of Michigan for assay.
Measurement of Acylcarnitines: Analysis was performed consistent with prior methods (see, e.g., Puskarich (2018) “Septic Shock Nonsurvivors Have Persistently Elevated Acylcarnitines Following Carnitine Supplementation” Shock 49: 412-419, incorporated herein by reference). Briefly, at the time of analysis, serum samples were thawed on ice and extraction solvent was prepared consisting of a 1:1:1 mixture of methanol:acetonitrile:acetone plus a 1:200 dilution of a stock mixture of stable-isotope labeled acylcarnitine standards dissolved according to manufacturer instructions (NSK-B, Cambridge Isotope Laboratories). Acylcarnitine species were then analyzed without derivatization by RPLC-MS/MS using an Agilent 1200 LC coupled to an Agilent 6410 tandem quadrupole (Santa Clara, CA). A pooled sample generated by combining a small volume of all study samples was injected every 10th run and was used for intra-batch and inter-batch drift correction as described below. Absolute quantitation by isotope dilution mass spectrometry was performed for acylcarnitine species with exact-matching stable isotope internal standards (L-carnitine, C2, C3, C4, C5, C8, C14, C16) by multiplying the ratio of the unlabeled peak area/labeled peak area by the known concentration of acylcarnitine in the extraction solvent, then adjusting for dilution of the original serum sample. Other acylcarnitine species were limited to relative quantification by peak area.
By 90 days, 90% of the deaths occurred and the interaction term between L-carnitine treatment and mortality flattened (FIG. 7). Based on this analysis, 90-day mortality was chosen as the primary clinical outcome.
Statistical analysis: For logistic regression modeling, treatment assignment was scaled from 0 (placebo) to 1 (18 g L-carnitine) and age and SOFA score were z-scale normalized. Two main models were developed for each metabolite. The base model was described by log it(p)=B0+BD*Dose+BM*Metabolitei, where p is the probability of mortality in 90 days. The treatment interaction was modeled with: log it(p)=B0+(BD*Dose)+(BM*Metabolitei)+(BMD*Metabolitei)*Dose […]

C[N+](C)(C)C[C@H](O)CC(=O)[O-] [L-carnitine]
reduction in sequential organ failure assessment (SOFA) score at 48 hours ([1]; 6, 12 or 18 g): none of the tested L-carnitine doses produced a significant reduction | absolute mortality reduction at 28 days compared to saline placebo ([1]; intention to treat analysis): 3% | absolute mortality reduction at 28 days compared to saline placebo ([1]; per protocol analysis): 6% | predicted probability of 90-day mortality (interaction logistic regression model) ([2]; as baseline acetylcarnitine concentration increases, dose 0, 6, 12, 18 g): declines with increasing L-carnitine dose | 90-day mortality ([2]; L-carnitine 18 g, p=0.002): 50% | 90-day mortality ([2]; L-carnitine any dose, p=0.02): 69% | proportion of 90-day non-survivors by dose received ([2]; low baseline acetylcarnitine tertile (normalized [−2.21, −0.508], n=79), placebo, 6, 12, 18 g, Fisher's exact test p=0.81): not associated with dose received; also recorded: not different between placebo or L-carnitine doses | treatment benefit (90-day mortality) ([2]; patients with acetylcarnitine less than 36 μM): no treatment benefit | treatment / mortality benefit ([2]; patients with acetylcarnitine ≥26 μM, L-carnitine 18 g, additional analysis (trend)): received a treatment benefit; also recorded: derived a mortality benefit | hazard ratio (Mantel-Haenszel) ([2]; scenario 1: no acetylcarnitine threshold): not significant | Kaplan-Meier curve, mortality benefit ([2]; scenario 1: no acetylcarnitine threshold, n=170, p=0.28): no mortality benefit | hazard ratio (Mantel-Haenszel) ([2]; scenario 2: acetylcarnitine (C2) threshold ≥26 μM): improved but is not significant | Kaplan-Meier curve, mortality benefit ([2]; scenario 2: acetylcarnitine (C2) threshold ≥26 μM, 52 patients, p=0.14): no mortality benefit | hazard ratio (Mantel-Haenszel) ([2]; scenario 3: acetylcarnitine (C2) threshold ≥30 μM): significant and favors L-carnitine (18 g) | Kaplan-Meier curve, mortality benefit ([2]; scenario 3: acetylcarnitine (C2) threshold ≥30 μM, 42 patients, p=0.01): mortality benefit | hazard ratio (Mantel-Haenszel) ([2]; scenario 4: acetylcarnitine (C2) threshold ≥36 μM): significant | Kaplan-Meier curve, mortality benefit ([2]; scenario 4: acetylcarnitine (C2) threshold ≥36 μM, 34 patients, p=0.004): mortality benefit

Reference: patent publication US12478603B2, “Serum metabolites as biomarkers for carnitine treatment of sepsis” (priority 2020, dated 2025)
